Where two headings read alike, the source gives them in different places.
Tests used:
[1] = partly stated as estimated; cited from earlier work
[2] = cited from earlier work
[3] = Liposome leakage, sedimentation method; type: physicochemical
Protocol: Liposome Leakage, Sedimentation Method. Liposome samples were diluted to 3-5 mL and left on an orbital shaker at 22° C. At specific time points, the liposomes were sedimented in a centrifuge at 300×g for 5 minutes and an aliquot of the clear supernatant was analyzed spectrophotometrically for drug and loading base content. After measurement, the solution was returned to the liposome suspension, which was vortexed and returned to the orbital shaker.
Then, 400 microliters of a pyridinium salt solution (prewarmed to 58° C.) were added to the lipid suspension. The mixture was kept at 58° C. for 5 minutes and then 100 microliters of the pyridinium salt solution were added. […] A total of three washes were performed. […] The samples were subsequently monitored for release of naltrexone using the sedimentation method. Two trials were performed for each condition.

[4] = Leakage of drug from loaded liposomes, Examples 5 to 8 (method not named); conditions: for leakage of chloroquine from liposomes loaded using this base, compared among three loading bases: adenine triflate, aniline triflate, pyridinium sulfate
[5] = cited from earlier work; remark: listed apart in the source
[6] = Liposome leakage, dialysis method; conditions: for pyridine leakage from the liposomes: slower after 3 days
Protocol: A 0.5-mL aliquot of liposome suspension was placed in a section of dialysis tubing tied at one end. The tubing was tied at the other end to form a sealed bag. The bag was placed in 4.5 mL of isotonic NaCl saline solution and placed on an orbital shaker. At specific time points, the dialysis bags were exchanged into fresh isotonic NaCl and the drug and loading base were quantified spectophotometrically in the external dialysis solutions.

[7] = administered orally; cited from earlier work
[8] = cited from earlier work; remark: listed apart in the source
[9] = 1.5 M pyridinium sulfate liposomes
[10] = liposomes loaded with this pyridinium salt

COc1ccccn1 [2-methoxypyridine]
log P [1]: approximately 1.3 | solubility in water [2]: limited solubility in water

C1=Cc2cccc(OC[C@H]3CNCCO3)c2C1.O=S(=O)(O)c1ccccc1 [Benzenesulfonate]
naltrexone release rate compared with sulfate and eprodisate salts [3]: higher release rates

Cl.c1ccncc1 [Chloride, pyridinium chloride]
release of naltrexone in about 300 hours [3]: 20%

CCC(C)O (stereo not drawn) [Example 2-butanol, 2-butanol]
log P [1]: 0.683

O=[N+]([O-])O [Nitrate]
release of naltrexone in 500 hours [3]: over 70% | release of naltrexone in 860 hours [3]: 90%

Nc1ncnc2nc[nH]c12 [adenine, 6-aminopurine]
leakage of chloroquine from liposomes loaded using this base, compared among three loading bases [4]: least rapid | pKa [5]: 4.15 | solubility in water [2]: very limited solubility in water

N [ammonia, reference compound]
log P [1]: approximately −0.3

Nc1ccccc1 [aniline]
leakage of chloroquine from liposomes loaded using this base, compared among three loading bases [4]: most rapid

CCN(CC)CCCC(C)Nc1ccnc2cc(Cl)ccc12 (stereo not drawn) [chloroquine, reference compound]
leakage after 400 hours ([4]; DPPC:cholesterol liposomes loaded with a sulfate salt of pyridine): 4-8% | leakage after 400 hours ([4]; loaded with the eprodisate salts of both pyridine and 2-methoxypyridine): ≤ 1% | leakage of loaded drug in the first 24 hours ([6]; 0.133 M ammonium sulfate gradient liposomes (comparison)): 18%

O=C1CC[C@@]2(O)[C@H]3Cc4ccc(O)c5c4[C@@]2(CCN3CC2CC2)[C@H]1O5 [naltrexone, reference compound]
initial release at 24 hours [3, 9]: approximately 4% | liposome contents released in 672 hours [3, 9]: 20% | release rate ([3]; 1.5 M pyridinium sulfate liposomes, over 672 hours): less than 1 % per day | log P [1]: 1.3 | pKa [5]: 7.3

NC(=O)c1cccnc1 [nicotinamide]
pKa [5]: 3.25 | concentration of solutions of the salt with most strong acids (as concentrated as) ([2]; pH 2-3 and room temperature): ≤ 4 M | oral dose with no toxic effects (as high as) [7]: ≤ 3 gm/day

CN1CC[C@]23c4c5ccc(O)c4O[C@H]2C(=O)CC[C@@]3(O)[C@H]1C5 [oxymorphone]
release time ([8]; animal studies, egg phosphatidylcholine and cholesterol vesicles): approximately 24 hours | release time ([8]; dipalmitoylphosphatidylcholine and cholesterol vesicles): approximately 72 hours

c1ccnnc1 [pyridazine]
log P [1]: approximately −0.7 | solubility in water [2]: miscible with water at all ratios

c1ccncc1 [pyridine]
pyridine leakage from the liposomes ([6]; 0.5 M pyridinium sulfate liposomes loaded with 2.5 or 5 μmol chloroquine): initially very rapid | pyridine loss from liposomes ([6]; 0.5 M pyridinium sulfate liposomes loaded with 10 or 20 μmol chloroquine): minimal | pyridine leakage from the liposomes ([6]; 1 M pyridinium chloride liposomes loaded with 2.5 or 5 μmol chloroquine): initially very rapid | pyridine loss from liposomes ([6]; 1 M pyridinium chloride liposomes loaded with 10 or 20 μmol chloroquine): minimal

O=S(=O)(O)CCCS(=O)(=O)O.c1ccncc1.c1ccncc1 [pyridinium eprodisate]
release of naltrexone in 900 hours [3, 10]: ~5%

Methanesulfonate
naltrexone release rate compared with sulfate and eprodisate salts [3, 10]: higher release rates

Reference: patent US12059499B2, “Liposome loading” (PLUMB PHARMACEUTICALS, INC., priority 2015, dated 2024)
